The experiment relates to T1, HERV-K protease.
T1 construct: gene pro; retroviral aspartic protease of consensus HERV-K genome (from Gag-Pro-Pol polyprotein; synthetic, plasmid pCD-HK/Rev), acting in transfected HeLa or 293 cells and virions; homodimer by homology
Briefly: virus production in transfected HeLa cells, RT activity in supernatant by PERT. The format is cell-based. The conditions noted are these: Homo sapiens, read-out: HERV-K IC50 (μM). The source says: virus production in transfected HeLa cells, RT activity in supernatant by PERT on HERV-K protease

As for `Cc1cccc(C)c1OCC(=O)N[C@@H](Cc1ccccc1)[C@@H](O)C[C@H](Cc1ccccc1)NC(=O)[C@H](C(C)C)N1CCCNC1=O` [Lopinavir], the IC50 amounted to 0.034 µM. In the case of `CC(C)CN(C[C@@H](O)[C@H](Cc1ccccc1)NC(=O)O[C@H]1CO[C@H]2OCC[C@H]21)S(=O)(=O)c1ccc(N)cc1` [Darunavir] it was 0.029 µM.

The IC50 is the concentration needed to halve the response being measured.

The values are drawn from paper PMC5361811, “Inhibition of human endogenous retrovirus-K by antiretroviral drugs” (Retrovirology, 2017).
